Series [1] is described as follows: Fluorescence polarisation by flow-injection analysis on the two-PMT apparatus. In kind it is physicochemical. Particulars: 488 nm excitation, GFP within whole GM-FF18984 yeast cells (0.005 % MMS, 18 hours), HPTSA 1×10^−7 mol l^−1 in phosphate buffer. As for the experimental part: An air cooled argon ion laser (162LGL, LG Laser Graphics GmbH, Dieburg, Germany), provided a 488 nm excitation light beam of 5 mW after filtering (TEM00>95%, beam diameter 0.67±0.05 mm). The light beam is represented by the arrow 1 in FIG. 1. The light beam 1 was plane polarised (>100:1). A four window quartz fluorescence flow cell 2 with an internal volume of 132 μl, specially constructed by Hellma Ltd, Southend-on-Sea, UK was housed in a cubic black plastic mounting block 3 (30×30×30 mm). The mounting block 3 was built at the University of Manchester Institute of Science and Technology. […]
A 488 nm interference filter 7, (3 nm half bandwidth), was used to filter the excitation light beam 1. […] One filter 8, 9 was rotated through 90° with respect to the other, such that one PMT 5 recorded the fluorescence intensity emitted polarised parallel with respect to the excitation beam (Ill), and the other PMT 6 recorded that emitted polarised perpendicular with respect to the excitation beam (Il). […] Additional filters were optimised and used in conjunction with the polarising filters to allow the laser-induced GFP fluorescence at 517 nm to be measured, whilst rejecting the high intensity laser light at 488 nm scattered towards the detector by yeast cells suspended in the stream of liquid passing through the flow cell. […]
In general terms: Fluorescence polarisation rises when a labelled molecule tumbles more slowly, as on binding a larger partner.

A short description of series [2]: Fluorescence polarisation ratio of fluorophores, commercial fluorescence spectrometer with two polarising filters. In kind it is physicochemical. Particulars: average of 20 replicate readings, cuvette. The text has this:
A standard commercial fluorescence spectrometer (LS50-B, Perkin Elmer) was used to carry out conventional measurements of fluorescence, scattered light intensity and for obtaining excitation and emission spectra, with a 1 cm path length acrylic cuvette (not shown). A yellow Schott glass filter (not shown) (YG495, thickness=3 mm) was placed within the sample chamber directly in front of the window of a PMT, in order to block excitation light scattered towards the PMT by yeast cells suspended in the cuvette. For fluorescence measurements the excitation and emission wavelengths were 490 and 520 nm respectively. […] Light intensity was recorded in arbitrary units produced directly by the instrument software.
Four fluorophores were chosen, which were close spectroscopic mimics of GFP. […] Using the commercial fluorescence spectrometer (not shown), the fluorescence excitation and emission spectra for each fluorophore and for GFP were obtained. […] HPTSA needed to be used at 20 times the concentration of fluorescein to obtain the same magnitude fluorescence signal.
To measure the fluorescence polarisation ratio (P) of the fluorophores, two polarising filters (not shown) (Grade HN38 polaroid sheet, laminated in rigid acrylic, thickness=3.4 mm) were inserted within the housing 3, one either side of the sample cuvette (Which was used in place of the flow cell 2). […]

Take `O=S(=O)([O-])c1cc(O)c2ccc3c(S(=O)(=O)[O-])cc(S(=O)(=O)[O-])c4ccc1c2c34.[Na+].[Na+].[Na+]` [HPTSA, 8-hydroxypyrene-1,3,6-trisulfonic acid trisodium salt]: in series [1], the “average fluorescence polarisation ratio (P)” value is on record as “≈ 0”. For the same compound, the “difference between Ill and Il” value in series [2] is listed as “less than 0.5%”.

The record behind these values is patent US6509161B1, “Green fluorescent protein” (Gentronix Limited, priority 2000, dated 2003).
